settings: not given

Row | Compound | log10 Koc (L/kg) | melting point | ready biodegradability | boiling point | log10 vapour pressure (mmHg) | log10 Henry constant (atm·m³/mol) | log10 Koa | log10 biodegradation half-life (days)
1 | Nc1c(Cl)c(Cl)c(Cl)c(Cl)c1Cl | 4.62 | 235 °C | not readily biodegradable |  |  |  |  | 
2 | CC(N)Cc1ccc(O)cc1 (stereo not given) |  | 126 °C |  |  |  |  |  | 
3 | Cc1nc2ccc([N+](=O)[O-])cc2[nH]1 |  | 224 °C |  |  |  |  |  | 
4 | CC(CC=O)CC(C)(C)C (stereo not given) |  |  | not readily biodegradable | 173 °C | -1.1 |  |  | 
5 | O=Cc1cccs1 |  |  |  | 197 °C |  |  |  | 
6 | CC(C)(C)CCO |  | -60 °C |  | 143 °C | 0.389 |  |  | 
7 | CCOc1nc(NC)nc(NC(=O)NS(=O)(=O)c2ccccc2C(=O)OC)n1 | 1.93 | 194 °C |  |  |  |  |  | 
8 | NC(=O)c1ccccc1F |  | 118 °C |  |  |  |  |  | 
9 | CC(=O)OCC(COC(C)=O)OC(C)=O |  |  | readily biodegradable | 259 °C | -2.61 |  |  | 
10 | C=CCC1(C2C=CCCC2)C(=O)NC(=S)NC1=O (stereo not given) |  | 149 °C |  |  |  |  |  | 
11 | CCCC(C)(COC(N)=O)COC(N)=O |  | 105 °C |  |  |  |  |  | 
12 | Cn1cccn1 |  |  |  | 127 °C |  |  |  | 
13 | CC(C)OC(=O)C1(S(=O)(=O)c2ccc([N+](=O)[O-])cc2)CCCCC1 |  | 110 °C |  |  |  |  |  | 
14 | CCCO |  |  | readily biodegradable | 97.2 °C | 1.32 | -5.13 |  | 
15 | CCC(C)c1ccccc1OC(=O)NC (stereo not given) | 1.71 | 31.5 °C | not readily biodegradable |  | -3.85 |  |  | 
16 | CC1=NNC(=O)C1 |  | 221 °C |  |  |  |  |  | 
17 | COc1ccc(Cl)cc1 |  |  |  | 198 °C |  |  |  | 
18 | CCCC#CCCCC(=O)O |  | -3 °C |  |  |  |  |  | 
19 | O=C(OCC(F)(F)F)C(F)(F)F |  |  |  | 55 °C |  |  |  | 
20 | ClCc1cccc(CCl)c1 |  | 34.2 °C |  | 252 °C |  |  |  | 
21 | C=CC(F)(Cl)C(F)(F)Br (stereo not given) |  |  |  | 99.5 °C |  |  |  | 
22 | FC(F)(F)C(F)(F)C(F)(F)C(F)(F)N(C(F)(F)C(F)(F)C(F)(F)C(F)(F)F)C(F)(F)C(F)(F)C(F)(F)C(F)(F)F |  | -50 °C | not readily biodegradable | 178 °C | -0.258 |  |  | 
23 | Cc1ccc(C)c(C)n1 |  |  |  | 172 °C |  |  |  | 
24 | O=C(O)[C@H](O)[C@@H](O)C(=O)O |  |  | readily biodegradable |  |  |  |  | 
25 | c1ccc2c(c1)ccc1cccnc12 |  | 52 °C |  | 339 °C | -3.66 |  |  | 

Row | Compound | log10 Koc (L/kg) | melting point | ready biodegradability | boiling point | log10 vapour pressure (mmHg) | log10 Henry constant (atm·m³/mol) | log10 Koa | log10 biodegradation half-life (days)
26 | NNC(=O)c1ccc(N)cc1O |  | 195 °C |  |  |  |  |  | 
27 | CC1(C)C(=O)NC(=O)N1CO |  | 100 °C |  |  |  |  |  | 
28 | Cl.N=C(N)N |  | 182 °C |  |  |  |  |  | 
29 | COC(=O)C1=C(C)NC(C)=C(C(=O)OC)C1c1ccccc1[N+](=O)[O-] |  | 173 °C |  |  |  |  |  | 
30 | OCCc1ccc2ccccc2n1 |  | 103 °C |  |  |  |  |  | 
31 | COP(=S)(OC)Oc1ccc([N+](=O)[O-])cc1 | 3 | 35.5 °C |  |  | -5.46 | -7 |  | 
32 | CCSC(C)=O |  |  |  | 116 °C |  |  |  | 
33 | OCCC(F)(F)C(F)(F)C(F)(F)C(F)(F)C(F)(F)C(F)(F)C(F)(F)C(F)(F)F |  |  | not readily biodegradable |  |  |  |  | 
34 | O=C=Nc1cccc(N=C=O)c1 |  | 50 °C |  |  |  |  |  | 
35 | C[C@]12C=CC(=O)C=C1CC[C@@H]1[C@@H]2CC[C@]2(C)OC(=O)CC[C@@H]12 |  | 218 °C |  |  |  |  |  | 
36 | C=C(C)C(=O)NCO |  | -37 °C |  |  |  |  |  | 
37 | C=C[C@@]1(C)C=C2CC[C@@H]3[C@](C)(CCC[C@@]3(C)C(=O)O)[C@H]2CC1 |  | 218 °C |  |  |  |  |  | 
38 | FC(F)(Cl)C(F)(F)Cl |  | -94 °C |  | 3.8 °C | 3.3 |  |  | 
39 | CCCCCC(=O)CC(C)=O |  | -18 °C |  |  |  |  |  | 
40 | CCCCCCCOC(=O)CCCCC |  | -34.4 °C |  | 261 °C |  |  |  | 
41 | O=C(O)c1cccc2cccnc12 |  | 187 °C |  |  |  |  |  | 
42 | C=C1C(=O)O[C@@H]2C[C@@]3(C)CCC[C@H](C)C3=C[C@H]12 |  | 76 °C |  | 275 °C |  |  |  | 
43 | C=C(C)CCC(=C)C |  | -75.6 °C |  | 114 °C |  |  |  | 
44 | C=CC(C)CCCC(C)C (stereo not given) |  |  |  | 154 °C |  |  |  | 
45 | C#C |  | -80.7 °C |  | -84.7 °C | 4.56 |  |  | 
46 | CCc1c(Br)c(Br)c(Br)c(Br)c1Br | 4.92 | 138 °C | not readily biodegradable |  |  |  |  | 
47 | CC(=O)[C@@]1(O)CC[C@H]2[C@@H]3C[C@H](C)C4=CC(=O)CC[C@]4(C)[C@H]3CC[C@@]21C |  | 214 °C |  |  |  |  |  | 
48 | CC1=CC(=O)CC1 |  |  |  | 158 °C |  |  |  | 
49 | CC[C@H]1C[N@@]2CC[C@H]1C[C@H]2[C@H](O)c1ccnc2ccc(OCCC(C)C)cc12 |  | 152 °C |  |  |  |  |  | 
50 | Nc1ccc(S(=O)(=O)NCc2ccccc2)cc1 |  | 171 °C |  |  |  |  |  | 

Row | Compound | log10 Koc (L/kg) | melting point | ready biodegradability | boiling point | log10 vapour pressure (mmHg) | log10 Henry constant (atm·m³/mol) | log10 Koa | log10 biodegradation half-life (days)
51 | ON=C(C(=NO)c1ccccc1)c1ccccc1 |  | 240 °C |  |  |  |  |  | 
52 | COc1c(Cl)cc(Cl)cc1Cl |  | 61.5 °C |  | 241 °C |  |  |  | 
53 | CC(C)CC(C)O (stereo not given) |  | -90 °C | readily biodegradable | 132 °C | 0.724 | -4.35 |  | 
54 | Cc1ncccn1 |  | -4 °C |  | 138 °C |  |  |  | 
55 | CCC1(CC)C(=O)NC(=O)NC1=O |  | 190 °C |  |  |  |  |  | 
56 | Clc1cc(Cl)c(-c2c(Cl)ccc(Cl)c2Cl)cc1Cl | 5.79 |  |  |  | -5.07 |  | 9.27 | 
57 | CCCCCSSCCCCC |  |  |  |  | -2.2 |  |  | 
58 | OCCc1c[nH]c2ccccc12 |  | 59 °C |  |  |  |  |  | 
59 | C=C(C)[C@@H]1CC=C(C)C(=O)C1 |  |  |  |  | -0.988 |  |  | 
60 | CC=C(C)C(C)C(C)=O (stereo not given) |  |  |  | 154 °C |  |  |  | 
61 | OC(c1ccccc1)(c1ccccc1)C1CCNCC1 |  | 160 °C |  |  |  |  |  | 
62 | Clc1cc(Cl)c(Cl)nc1Cl |  | 90.5 °C |  | 250 °C |  |  |  | 
63 | CCCCC(=O)O[C@]1(C(=O)CO)CC[C@H]2[C@@H]3CCC4=CC(=O)CC[C@]4(C)[C@H]3[C@@H](O)C[C@@]21C |  | 218 °C |  |  |  |  |  | 
64 | OC(CCN1CCCCC1)(c1ccccc1)c1ccccc1 |  | 120 °C |  |  |  |  |  | 
65 | CCOc1ccc(Cl)cc1Cl |  | 32 °C |  | 237 °C |  |  |  | 
66 | CCCCN(CC)c1c([N+](=O)[O-])cc(C(F)(F)F)cc1[N+](=O)[O-] | 4.03 | 66 °C | not readily biodegradable | 370 °C | -4.19 |  |  | 
67 | COc1ccc(Cl)cc1Cl |  | 28.5 °C |  | 232 °C |  |  |  | 
68 | CC(C)(Br)C(=O)Br |  |  |  | 163 °C |  |  |  | 
69 | FC(F)(F)C(Cl)(Cl)Cl |  | 14.2 °C |  | 46.1 °C | 2.56 |  |  | 
70 | CCc1ccccc1Cl |  | -82.7 °C |  | 178 °C |  |  |  | 
71 | NC(=O)Nc1ccc(Cl)c(Cl)c1 | 2.53 |  |  |  |  |  |  | 
72 | C=CCCCCCCCCC(=O)O |  | 24.5 °C |  | 275 °C | -3.03 |  |  | 
73 | N#CC1(N=NC2(C#N)CCCCC2)CCCCC1 |  | 116 °C |  |  |  |  |  | 
74 | CCC(CC)c1ccccn1 |  |  |  | 195 °C |  |  |  | 
75 | Nc1ccccn1 |  | 57.5 °C | not readily biodegradable | 211 °C |  |  |  | 

Row | Compound | log10 Koc (L/kg) | melting point | ready biodegradability | boiling point | log10 vapour pressure (mmHg) | log10 Henry constant (atm·m³/mol) | log10 Koa | log10 biodegradation half-life (days)
76 | Cc1cc(NS(=O)(=O)c2ccc(N)cc2)sn1 |  | 192 °C |  |  |  |  |  | 
77 | Cc1ccc(N=C=S)cc1 |  | 25.5 °C |  | 237 °C |  |  |  | 
78 | C[C@@H]1O[C@@H](O[C@H]2CC[C@]3(C=O)[C@H]4CC[C@]5(C)[C@@H](c6ccc(=O)oc6)CC[C@]5(O)[C@@H]4CC[C@]3(O)C2)[C@H](O)[C@H](O)[C@H]1O[C@@H]1O[C@H](CO)[C@@H](O)[C@H](O)[C@H]1O |  | 284 °C |  |  |  |  |  | 
79 | CCCCCCCCCCCCCCCCCCCCCCCCCCCCC |  | 63.7 °C | readily biodegradable | 441 °C | -9.37 |  |  | 2
80 | C=C(Br)Br |  |  |  | 92 °C |  |  |  | 
81 | Brc1nccs1 |  |  |  | 171 °C |  |  |  | 
82 | Cc1c([N+](=O)[O-])cc(N)cc1[N+](=O)[O-] |  | 171 °C |  |  |  |  |  | 
83 | C[N+](C)(C)CCOC(=O)CCC(=O)OCC[N+](C)(C)C.[I-].[I-] |  | 244 °C |  |  |  |  |  | 
84 | Nc1c(F)c(F)cc(F)c1F |  | 31.5 °C |  | 158 °C |  |  |  | 
85 | CCCCCCC(CCCCCC)CCCCCC |  | -28.3 °C |  |  |  |  |  | 
86 | CCCCCCCCCCCCS(=O)(=O)O |  |  | readily biodegradable |  |  |  |  | 
87 | COc1cc(C)cc(C)c1 |  |  |  | 194 °C |  |  |  | 
88 | O=C1c2ccccc2C(=O)c2c(NCCO)ccc(NCCO)c21 |  | 248 °C |  |  |  |  |  | 
89 | CN(C)CCCCCCN(C)C |  |  | not readily biodegradable | 210 °C |  |  |  | 
90 | CC(CCO)CC(F)(F)F (stereo not given) |  |  |  | 159 °C |  |  |  | 
91 | CCCC(c1ccccc1)c1ccccc1 |  | 27 °C |  | 287 °C |  |  |  | 
92 | CCOC(=O)C(C)(C)C(=O)OCC |  | -30.4 °C |  | 197 °C |  |  |  | 
93 | C#CC(C)(C)O |  | 3 °C |  | 104 °C | 1.2 | -5.41 |  | 
94 | CC(C)(COCc1cccc(Oc2ccccc2)c1)c1ccc(OC(F)(F)Br)cc1 |  |  |  |  | -8.23 |  |  | 
95 | CCCCCCCCCCCC(=O)OCC |  | -10 °C |  | 271 °C |  |  |  | 
96 | CCOC(=O)C(C)C |  | -88.2 °C |  | 110 °C | 1.4 |  |  | 
97 | CCCCCCCCCCCCCC#N |  | 19 °C |  |  |  |  |  | 

same assay, conditions: fish

Row | Compound | log10 BCF | log10 biotransformation half-life (days)
98 | Nc1c(Cl)c(Cl)c(Cl)c(Cl)c1Cl | 2.71 | 
99 | CCC(C)c1ccccc1OC(=O)NC (stereo not given) | 1.41 | -0.52
100 | COP(=S)(OC)Oc1ccc([N+](=O)[O-])cc1 | 1.93 | 0.55
101 | C=C[C@@]1(C)C=C2CC[C@@H]3[C@](C)(CCC[C@@]3(C)C(=O)O)[C@H]2CC1 | 1.92 | 
102 | CCc1c(Br)c(Br)c(Br)c(Br)c1Br | 2.52 | 0.02
103 | COc1c(Cl)cc(Cl)cc1Cl | 2.86 | 
104 | C=C(C)CCCCCCCCCC |  | 0.64
105 | Nc1ccccn1 | 1.06 | 
106 | CC(C)(c1ccc(OC(F)(F)C(F)F)cc1)c1ccc(OC(F)(F)C(F)F)cc1 | 4.35 | 2.79

Reference: the OPERA property sets (Mansouri et al. 2018)
